Assays:
[1] = biological target: MAGL (Mus musculus (Mouse), UniProt O35678); test: In vitro competitive activity-based protein profiling, MAGL (mouse); format: biochemical; conditions: for inhibition at 1 µM: read-out: MAGL % inh. 1 μM (mouse)
In short: (§1)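 Proteomes at 1.0 mg/mL protein (mouse brain membranes or cell lysates; human prefrontal cortex or cell membranes) preincubated with inhibitor 30 min at 37 °C. Then FP-Rh or HT-01 probe (50 μM stock) added for 30 min at 37 °C. MAGL and FAAH activity measured by SDS-PAGE band fluorescence.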

[2] = biological target: FAAH (Mus musculus (Mouse), UniProt O08914); test: In vitro competitive activity-based protein profiling, FAAH (mouse); format: biochemical; conditions: for inhibition at 1 µM: read-out: FAAH % inh. 1 μM (mouse)
In short: as §1

Sequence of MAGL (O35678 whole entry): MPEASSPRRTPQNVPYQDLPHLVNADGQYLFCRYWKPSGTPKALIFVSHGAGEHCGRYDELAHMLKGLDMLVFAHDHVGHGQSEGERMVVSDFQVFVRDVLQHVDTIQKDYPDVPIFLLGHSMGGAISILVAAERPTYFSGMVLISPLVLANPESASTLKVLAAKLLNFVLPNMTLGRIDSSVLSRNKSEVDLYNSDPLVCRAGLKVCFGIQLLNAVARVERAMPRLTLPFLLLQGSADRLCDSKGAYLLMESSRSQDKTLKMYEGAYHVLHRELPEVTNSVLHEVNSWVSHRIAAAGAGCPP
Sequence of FAAH (O08914 whole entry): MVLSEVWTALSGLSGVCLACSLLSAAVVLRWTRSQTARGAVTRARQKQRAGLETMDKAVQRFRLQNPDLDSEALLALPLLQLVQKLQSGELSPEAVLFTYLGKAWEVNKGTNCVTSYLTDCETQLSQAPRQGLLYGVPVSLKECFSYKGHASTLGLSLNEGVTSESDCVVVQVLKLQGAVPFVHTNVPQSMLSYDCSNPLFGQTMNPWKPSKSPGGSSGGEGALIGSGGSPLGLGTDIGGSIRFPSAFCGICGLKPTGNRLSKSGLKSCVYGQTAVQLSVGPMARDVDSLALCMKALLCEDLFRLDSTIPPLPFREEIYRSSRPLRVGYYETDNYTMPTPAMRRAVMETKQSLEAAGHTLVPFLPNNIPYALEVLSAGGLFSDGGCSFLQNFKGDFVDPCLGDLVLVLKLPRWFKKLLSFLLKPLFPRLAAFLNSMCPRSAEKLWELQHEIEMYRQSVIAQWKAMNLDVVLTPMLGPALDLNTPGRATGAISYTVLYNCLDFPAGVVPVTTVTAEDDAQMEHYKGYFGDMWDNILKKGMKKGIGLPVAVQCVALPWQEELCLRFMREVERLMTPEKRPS

Row | SMILES | IC50 [1] [nM] | inhibition at 1 µM [1] [%] | IC50 [2] [nM] | inhibition at 1 µM [2] [%]
1 | CC(=O)N(C)c1cnn(C(=O)N2CC3CN(Cc4cc(Cl)cc(N5CCN(C6CC6)CC5)c4)CC3C2)c1 (stereo not shown) [Example 120, N-(1-(5-(3-chloro-5-(4-cyclopropylpiperazin-1-yl)benzyl)octahydropyrrolo[3,4-c]pyrrole-2-carbonyl)-1H-pyrazol-4-yl)-N-methylacetamide] | ≤ 100 | ≥ 75 | ≤ 100 | ≥ 75
2 | CC(=O)N(C)c1cnn(C(=O)N2CCC3(CCN(Cc4ccc(N5CCCC5)cc4)C3)C2)c1 (stereo not shown) [Example 47, N-methyl-N-(1-(7-(4-(pyrrolidin-1-yl)benzyl)-2,7-diazaspiro[4.4]nonane-2-carbonyl)-1H-pyrazol-4-yl)acetamide] |  | 25 to 50 |  | ≥ 75
3 | CC(=O)N(C)c1cnn(C(=O)N2CC3CN(Cc4ccc(N5CCCC5)cc4Cl)CC3C2)c1 (stereo not shown) [Example 132, N-(1-(5-(2-chloro-4-(pyrrolidin-1-yl)benzyl)octahydropyrrolo[3,4-c]pyrrole-2-carbonyl)-1H-pyrazol-4-yl)-N-methylacetamide] |  | ≥ 75 |  | ≥ 75
4 | CC(=O)N(C)c1cnn(C(=O)N2C[C@H]3C[C@H](N(Cc4ccc(Cl)cc4)C(C)=O)C[C@H]3C2)c1 [Example 174, N-(4-chlorobenzyl)-N-(trans-2-(4-(N-methylacetamido)-1H-pyrazole-1-carbonyl)octahydrocyclopenta[c]pyrrol-5-yl)acetamide] |  | ≥ 75 |  | 0 to 25
5 | CC(=O)N(C)c1cnn(C(=O)N2CC3CN(Cc4ccc(-c5cncnc5)cc4Cl)CC3C2)c1 (stereo not shown) [Example 259, N-(1-(5-(2-chloro-4-(pyrimidin-5-yl)benzyl)octahydropyrrolo[3,4-c]pyrrole-2-carbonyl)-1H-pyrazol-4-yl)-N-methylacetamide] |  | ≥ 75 |  | ≥ 75
6 | CC(=O)N(C)c1cnn(C(=O)N2C[C@H]3C[C@H](NCc4ccccc4Cl)C[C@H]3C2)c1 [Example 136, N-(1-(trans-5-(2-chlorobenzylamino)octahydrocyclopenta[c]pyrrole-2-carbonyl)-1H-pyrazol-4-yl)-N-methylacetamide] | 100 to 1000 | ≥ 75 | 100 to 1000 | ≥ 75
7 | CC(=O)N(C)c1cnn(C(=O)N2CC3CN(Cc4ccc(OC(C)C)cc4Cl)CC3C2)c1 (stereo not shown) [Example 253, N-(1-(5-(2-chloro-4-isopropoxybenzyl)octahydropyrrolo[3,4-c]pyrrole-2-carbonyl)-1H-pyrazol-4-yl)-N-methylacetamide] |  | ≥ 75 |  | ≥ 75
8 | CC(=O)N(C)c1cnn(C(=O)N2CC3CN(Cc4ccccc4F)CC3C2)c1 (stereo not shown) [Example 182, N-(1-(5-(2-fluorobenzyl)octahydropyrrolo[3,4-c]pyrrole-2-carbonyl)-1H-pyrazol-4-yl)-N-methylacetamide] | 100 to 1000 | ≥ 75 | ≤ 100 | ≥ 75
9 | CC(=O)N(C)c1cnn(C(=O)N2CC3CN(Cc4ccc(N5C[C@@H]6C[C@H]5CN6C)cc4C(F)(F)F)CC3C2)c1 (stereo partly drawn) [Example 250, N-methyl-N-(1-(5-(4-((1S,4S)-5-methyl-2,5-diazabicyclo[2.2.1]heptan-2-yl)-2-(trifluoromethyl)benzyl)octahydropyrrolo [3,4-c]pyrrole-2-carbonyl)-1H-pyrazol-4-yl)acetamide] |  | ≥ 75 |  | 50 to 75
10 | CC(=O)N(C)c1cnn(C(=O)N2C[C@H]3C[C@@H](N(Cc4ccc(Cl)cc4)C(C)=O)C[C@H]3C2)c1 [Example 171, N-(4-chlorobenzyl)-N-(cis-2-(4-(N-methylacetamido)-1H-pyrazole-1-carbonyl)octahydrocyclopenta[c]pyrrol-5-yl)acetamide] |  | ≥ 75 |  | 25 to 50
11 | CS(=O)(=O)Nc1cnn(C(=O)N2CCC3(CC2)CN(Cc2cc(Cl)ccc2C(F)(F)F)C3)c1 [Example 277, N-(1-(2-(5-chloro-2-(trifluoromethyl)benzyl)-2,7-diazaspiro[3.5]nonane-7-carbonyl)-1H-pyrazol-4-yl)methanesulfonamide] | ≤ 100 | ≥ 75 | ≤ 100 | ≥ 75
12 | CC(=O)N(C)c1cnn(C(=O)N2CCC3(CC2)CN(Cc2ccccc2F)C3)c1 [Example 41, N-(1-(2-(2-fluorobenzyl)-2,7-diazaspiro[3.5]nonane-7-carbonyl)-1H-pyrazol-4-yl)-N-methylacetamide] |  | ≥ 75 |  | 50 to 75
13 | CC(=O)N(C)c1cnn(C(=O)N2CC3CN(Cc4ccc(F)c(Cl)c4)CC3C2)c1 (stereo not shown) [Example 122, N-(1-(5-(3-chloro-4 fluorobenzyl)octahydropyrrolo[3,4-c]pyrrole-2-carbonyl)-1H-pyrazol-4-yl)-N-methylacetamide] | 100 to 1000 | ≥ 75 | ≤ 100 | ≥ 75
14 | CC(=O)N(C)c1cnn(C(=O)N2CC3CN(Cc4cc(N5CCCC5)ccc4C(F)(F)F)CC3C2)c1 (stereo not shown) [Example 127, N-methyl-N-(1-(5-(5-(pyrrolidin-1-yl)-2-(trifluoromethyl)benzyl)octahydropyrrolo[3,4-c]pyrrole-2-carbonyl)-1H-pyrazol-4-yl)acetamide] |  | ≥ 75 |  | ≥ 75
15 | CC(=O)N(C)c1cnn(C(=O)N2CC3CN(Cc4cc(C(F)(F)F)ccc4N4CCCC4)CC3C2)c1 (stereo not shown) [Example 128, N-methyl-N-(1-(5-(2-(pyrrolidin-1-yl)-5-(trifluoromethyl)benzyl)octahydropyrrolo[3,4-c]pyrrole-2-carbonyl)-1H-pyrazol-4-yl)acetamide] |  | ≥ 75 |  | ≥ 75
16 | CC(=O)N(C)c1cnn(C(=O)N2CCN(Cc3ccccc3C(F)(F)F)CC2)c1 [Example 214, N-methyl-N-(1-(4-(2-(trifluoromethyl)benzyl)piperazine-1-carbonyl)-1H-pyrazol-4-yl)acetamide] | ≤ 100 | ≥ 75 | ≤ 100 | ≥ 75
17 | CC(=O)N(C)c1cnn(C(=O)N2CC3(CCN(Cc4ccc(N5CCOCC5)cc4Cl)CC3)C2)c1 [Example 22, N-(1-(7-(2-chloro-4-morpholinobenzyl)-2,7-diazaspiro[3.5]nonane-2-carbonyl)-1H-pyrazol-4-yl)-N-methylacetamide] | 1000 to 10000 | 25 to 50 | 100 to 1000 | ≥ 75
18 | CC(=O)N(C)c1cnn(C(=O)N2CC3CN(Cc4ccc(Cl)c(N5CCOCC5)c4)CC3C2)c1 (stereo not shown) [Example 129, N-(1-(5-(4-chloro-3-morpholinobenzyl)octahydropyrrolo[3,4-c]pyrrole-2-carbonyl)-1H-pyrazol-4-yl)-N-methylacetamide] |  | ≥ 75 |  | ≥ 75
19 | CN(Cc1ccc(N2CCCC2)cc1C(F)(F)F)[C@H]1C[C@@H]2CN(C(=O)n3cc(NS(C)(=O)=O)cn3)C[C@@H]2C1 [Example 282, N-(1-(trans-5-(methyl(4-(pyrrolidin-1-yl)-2-(trifluoromethyl)benzyl)amino)octahydrocyclopenta[c]pyrrole-2-carbonyl)-1H-pyrazol-4-yl) methanesulfonamide] |  | 50 to 75 |  | ≥ 75
20 | CC(=O)N(C)c1cnn(C(=O)N2CC3CN(Cc4cccc(Oc5ccccc5)c4)CC3C2)c1 (stereo not shown) [Example 234, N-methyl-N-(1-(5-(3-phenoxybenzyl)octahydropyrrolo[3,4-c]pyrrole-2-carbonyl)-1H-pyrazol-4-yl)acetamide] | ≤ 100 | ≥ 75 | ≤ 100 | ≥ 75
21 | CC(=O)N(C)c1cnn(C(=O)N2CC3(CCN(Cc4cccc(C(F)(F)F)c4)CC3)C2)c1 [Example 88, N-methyl-N-(1-(7-(3-(trifluoromethyl)benzyl)-2,7-diazaspiro[3.5]nonane-2-carbonyl)-1H-pyrazol-4-yl)acetamide] |  | 50 to 75 |  | ≥ 75
22 | CC(=O)N(C)c1cnn(C(=O)N2CC3CN(Cc4cc(Cl)cc(N5CCOCC5)c4)CC3C2)c1 (stereo not shown) [Example 125, N-(1-(5-(3-chloro-5-morpholinobenzyl)octahydropyrrolo[3,4-c]pyrrole-2-carbonyl)-1H-pyrazol-4-yl)-N-methylacetamide] | ≤ 100 | ≥ 75 | ≤ 100 | ≥ 75
23 | CC(=O)N(C)c1cnn(C(=O)N2C[C@H]3C[C@@H](N(Cc4ccccc4Cl)C(C)=O)C[C@H]3C2)c1 [Example 169, N-(2-chlorobenzyl)-N-(cis-2-(4-(N-methylacetamido)-1H-pyrazole-1-carbonyl)octahydrocyclopenta[c]pyrrol-5-yl)acetamide] |  | ≥ 75 |  | 25 to 50
24 | CC(=O)N(C)c1cnn(C(=O)N2C[C@H]3C[C@@H](N(C)Cc4cc(Cl)ccc4C(F)(F)F)C[C@H]3C2)c1 [Example 161, N-(1-(cis-5-((5-chloro-2-(trifluoromethyl)benzyl)(methyl)amino)octahydrocyclopenta[c]pyrrole-2-carbonyl)-1H-pyrazol-4-yl)-N-methylacetamide] | ≤ 100 | ≥ 75 | ≤ 100 | ≥ 75
25 | CC(=O)N(C)c1cnn(C(=O)N2C[C@H]3C[C@@H](N(C)Cc4ccc(N5CCCC5)cc4C(F)(F)F)C[C@H]3C2)c1 [Example 152, N-methyl-N-(1-(cis-5-(methyl(4-(pyrrolidin-1-yl)-2-(trifluoromethyl)benzyl)amino)octahydrocyclopenta[c]pyrrole-2-carbonyl)-1H-pyrazol-4-yl)acetamide] |  | ≥ 75 |  | ≥ 75

From patent publication US10323038B2, “Pyrazole compounds and methods of making and using same” (ABIDE THERAPEUTICS, INC., priority 2015, dated 2019)
